Read-outs that look alike come from different tables or passages of the source.
Experiments:
[1] = test system: Chinese hamster ovary (CHO) AA8 cell line; assay: LDH release toxicity assay in cultured CHO AA8 cells; assay type: cell-based; conditions: 1 hour incubation, read-out: LC50 (the source's name)
Experimental: Various DP-BFA molecules were screened in cultured Chinese hamster ovary (CHO) AA8 cell line in order to establish their toxicity. LC50 values, i.e. the concentrations causing death in 50% of cell population, were calculated from dose response curves. LC50 values of phospho-BFAs were compared to those of the corresponding branched fatty acids (=carbo-BFAs).
Lactate dehydrogenase (LDH) release was used as an assay for the integrity of the cells membrane and, thus, for estimation of toxicity. Cells (2×10^5/ml) were seeded (150 μl/well) in 96 well plates, in RPMI-1640 medium containing 10% FCS. After two days, tested DP-BFA compounds or the control compound myristic acid were added to the plates in declining concentrations ranging from 500 to 1 μg/ml. Cells were harvested after one hour. […] Other controls included, two blank wells and five wells containing cells with no additional drugs. Following centrifugation (1500 rpm, 5 min), 75 μl of the supernatant was transferred to a new plate with 45 μl of an LDH assay mix (Tox-7 kit, Sigma). After 10–20 minutes at room temperature, absorbance was measured using an Elisa Reader 490 nm.
Each experiment was performed in triplicate.

[2] = test system: Caco-2 colon cancer cell line; assay: MTT cytotoxicity, Caco-2; assay type: cell-based, human; conditions: Caco-2, three days, read-out: EC50 (50% reduction in cell viability)
Experimental: (§1) The cytotoxic activity of various phospho-derivatives of branched-chain fatty acids (DP-BFAs) was assayed in vitro in cell cultures that include normal and malignant cell types. The following cell systems were used: • Primary fibroblasts (human) • Normal bone marrow (BM) cells (mouse) • Primary bronchial epithelial cells (human, from Clonetics, cat. no. CC-2541) • Caco-2—colon cancer cell line (human, ATTC, HTB-37) • C6 glioma cell line (rat, ATCC, CRL-2199) • Neuro2a—neuroblastoma cell line (mouse, ATCC, CCL-131) • SKBR-3—breast cancer cell line (human, ATTC, HTB-30) • HL60—myeloid leukemia cell line (human, ATCC, CCL-240) • U937—myeloid leukemia cell line (human)
(§2) Cells were seeded in a microtiter plate in MEM containing 2 mM L-glutamine, 100 units/ml penicillin, 100 ug/ml streptomycin and 10% FCS at 37° C. The cultured cells were incubated, during their linear growth phase in the absence (control group) or presence of various DP-BFAs as indicated. The final concentrations of the tested DP-BFAs ranged from 1.5 to 200 microMolars. At the end of the incubation period, which was five days for the bone marrow cells and three days for all the other cell lines, the cytotoxic effect of the added P-BFA on the cells was estimated by using the colorimetric MTT assay. The MTT assay (Mosmann (1983) J. Immunol Methods 65: 55–63) measures mitochondrial reductase activity and serves for quantitative assessment of cellular viability. Drug concentration that causes 50% reduction in cell viability in comparison to the control group, is defined as EC50. The EC50 values of the tested DP-BFA compounds were calculated from dose response curves established for each of the different assayed cell lines.
(§3) Each EC50 value is an average of EC50 values derived from 1–5 independent experiments.

[3] = test system: Neuro2a neuroblastoma cell line; assay: MTT cytotoxicity, Neuro2a; assay type: cell-based, mouse; conditions: three days, read-out: EC50 (50% reduction in cell viability)
Experimental: as §1, §2, §3

[4] = test system: SKBR-3 breast cancer cell line; assay: MTT cytotoxicity, SKBR-3; assay type: cell-based, human; conditions: three days, read-out: EC50 (50% reduction in cell viability)
Experimental: as §1, §2, §3

[5] = test system: U937 myeloid leukemia cell line; assay: MTT cytotoxicity, U937; assay type: cell-based, human; conditions: U937, three days, read-out: EC50 (50% reduction in cell viability)
Experimental: as §1, §2, §3

[6] = test system: blood brain barrier (BBB); assay: BBB permeabilization in rats, Evans blue extravasation into brain; assay type: in vivo, Sprague-Dawley rats; conditions: for MEC (minimal effective concentration): concentration giving 3 μg EB/g brain
Text: Permeabilization of the BBB by DP-BFA was investigated in rat model system by monitoring accumulation in the brain of two markers: a) Evans blue dye (EB), which rapidly binds in vivo with albumin (NW 70 kD) and is an indicator for paracellular transport; and b) Fluorescein sodium salt (F—Na), MW 376 D, which is transported via the cellular space, and enables monitoring transcellular transport. Upon BBB disruption the Evans blue-albumin complex irreversibly accumulates in the intercellular space of the brain. The much smaller tracer fluorescein may be transported intracellularly to occupy both inter and intracellular space in the brain.
Blood brain barrier permeabilization in Sprague-Dawley rats was induced by brief exposure to DP-BFA. The animals were anesthetized with Rampun-Imalgen and DP-BFA test compounds were administered via the external carotid artery retrograde to the brain (Smith, Q. R. Methods of study. In: Physiology and Pharmacology of the Blood-Brain Barrier. Ed. Bradbury M. W. B. Spinger-Verlag. Berlin-Heidelberg-NY; 1992: 24–52). The pterygo-palathina artery was ligated to avoid escape of infused solutions towards the external head vasculature. DP-BFA solutions were infused over a period of 30 seconds or half an hour, using a Harvard Apparatus Syringe Pump. Blood flow through carotid communis artery was interrupted only at the time of infusion.
All tested DP-BFA molecules were prepared from stock solutions in either water or ethanol by diluting 200–1000 fold into solution of isosmotic mannitol (5%) in Tromethamine buffer (Sigma) or PBS (pH 7.4)
The markers, Evans blue (EB, 25 mg/ml) and fluorescein (F—Na, 12.5 mg/ml), in 1 ml solution, were injected intravenously immediately following administration of the tested DP-BFA, or after a specific time interval if reversibility of action was investigated. Supportive i.v. infusion of F—Na (12.5 mg/ml–100 μl/min) was performed for 8 minutes. Brains were washed with saline solution (60 ml) 10 min after the intracarotid “flash”. Brain ipsilateral and contralateral hemispheres and tumors, where applicable, were homogenized separately with 50% trichloroacetic acid (TCA). The markers concentrations in the cortex and in tumors, where, applicable, were determined spectrofluorometrically (Uyama, O. et al., (1988) J. Cereb. Blood Flow Metab. 8, 282–284: Abraham et al., (1996) Neurosci. Lett. 208, 85–88). The markers content was calculated as μg marker per one-gram brain tissue. Standard error and Student's test for statistical significance were used.
The experiment was carried out on male Sprague-Dawley rats weighing 250–320 g. The procedure described above in Example 17 was followed.
The effect of the tested compounds on the BBB opening was evaluated by two parameters:
a) efficacy—The degree of BBB opening estimated in terms of accumulation of Evans Blue albumin (μg EB/g brain tissue); and
b) potency—measured in terms of EC50 and minimal effective concentration (MEC) values. EC50 is the concentration of a tested compound producing 50% of the maximal effect of Evans Blue extravasation.
The effect of various DP-BFAs on BBB permeability was tested in the model system of rat brains, as described above in Example 17. Efficacy, namely the level of the BBB opening was expressed as the amount of Evans blue accumulated in the brain (μg EB/g brain). Potency of the tested molecules was estimated by their calculated EC50 and minimal effective concentration (MEC) values.

[7] = test system: blood brain barrier (BBB); assay: BBB permeability to EB-albumin and Fluorescein in normal rat brains; assay type: in vivo; conditions: compounds at EC50 (Mannitol 25%); for % EB/g brain: control 0.04 ± 0.01; for Brain fluorescein uptake (% of serum F-Na level): control 0.3 ± 0.08; for Ratio F-Na/EB (mean of individual ratios): control 9.5 ± 1.6
Text: The effect of various DP-BFAs on BBB permeabilization to molecules of different sizes was examined in vivo in the model system of normal rat brains.
The transport of two markers was followed: a) Evans blue bound to albumin (MW 70 kD) as an indicator for paracellular transport; and b) Fluorescein sodium salt (MW 376 D) that represents small size molecules.
The Evans blue dye (EB) and Fluorescein sodium salt (F—Na) were infused into the artery carotis externa over 30 seconds according to the protocol described above in Example 17. The test compounds were used at their EC50 concentrations. Control animals were treated with vehicle solution.
Evans blue extravasation is expressed as the percentage of the total amount of EB accumulated per one gram of brain tissue. The transport of fluorescein into the brain, which is dependent on the serum concentration of this molecule, is presented as percentage of the F—Na level in the serum.

[8] = assay type: in vivo; conditions: rats, sodium salt
Experimental: DP-BFA molecules were evaluated for safety and toxicity. Increasing doses of the tested compounds were administered intra-arterially (i.a.) into rats following the protocol described above in Example 17. Animal viability was monitored for 24 hours to evaluate lethal concentrations (LC). LC is defined as the minimal concentration that caused death.
Safety index is defined as the ratio between the lethal dose (LC) and the minimal effective concentration (MEC), wherein MEC corresponds to a calculated concentration of the tested compound that elicits accumulation of three times the amount of Evans blue accumulated in control animals treated with vehicle only, i.e. total accumulation of 3 μg EB. The higher the LC/MEC ratio is, the higher the safety index.

[9] = Octanol/saline solubility and partition coefficient, shake-flask technique
Experimental: The lipophilicity values of various derivatives of branched fatty acids were estimated by comparing the solubility of these compounds in organic versus aqueous solutions. Octanol and physiological saline were used, respectively, as the organic and aqueous solutions. The partition coefficient (Pc) value, i.e. the octanol/saline distribution was measured by the shake-flask technique.

[10] = test system: HL60 myeloid leukemia cell line; assay: MTT cytotoxicity, HL60; assay type: cell-based, human; conditions: HL60, three days, read-out: EC50 (50% reduction in cell viability)
Experimental: as §1, §2, §3

[11] = test system: Normal bone marrow (BM) cells; assay: MTT cytotoxicity, normal bone marrow cells; assay type: cell-based, mouse; conditions: five days, read-out: EC50 (50% reduction in cell viability)
Experimental: as §1, §2, §3

[12] = test system: Primary bronchial epithelial cells; assay: MTT cytotoxicity, normal primary epithelial cells; assay type: cell-based, human; conditions: Normal primary epithel, three days, read-out: EC50 (50% reduction in cell viability)
Experimental: as §1, §2, §3

[13] = Table 6, rat brains, Evans blue extravasation, read-out: EQ50 (the source's name)

Row | Molecule | CC50 [1] | EC50 [2] | EC50 [3] | EC50 [4] | EC50 [5] | MEC (minimal effective concentration) ([6]; Table 6) | EC50 [6, 13] | % EB/g brain [7] | Brain fluorescein uptake (% of serum F-Na level) [7] | Ratio F-Na/EB (mean of individual ratios) [7] | further results
1 | CCCCCCCCCCCCC(CCC)OP(=O)([O-])[O-].[Na+].[Na+] (centres unmarked) [3,12-PO4Na2, 4-Hexadecanyl Disodium Phosphate] | 320 µM | > 200 µM | 105 µM | > 200 µM | 90 µM | 3.3 ± 0.5 µM | 55 ± 1 µM | 2.9 ± 0.6% | 8.2 ± 0.9 % of the F—Na level in the ser | 5.9 ± 1.0 | μg EB/g brain (at EC50) ([6]; Table 6, at EC50 (Mannitol at 25%), listed as 3,12-PO4-Na2): 20 ± 3 μg EB/g brain; μg EB/g brain (at EC50) ([6]; Table 6, at EC50 (Mannitol at 25%), listed as 3,12-PO4—Na2): 20 μg EB/g brain
2 | CCCCCCCC(CCCCCCC)C(=O)[O-].[Na+] [7,7-Na, reference compound] | 65 µM |  |  |  |  |  |  |  |  |  | μg EB/g brain (at EC50) ([6]; Table 5, at EC50): 4.2 ± 0.6 μg EB/g brain; MEC (minimal effective concentration) ([6]; Table 5): 132 ± 19; EC50 ([6]; Table 5, rat brain, intracarotid infusion, read-out: EC50 (Evans Blue extravasation)): 184 ± 21 µM; MEC ([6]; Table 8, sodium salt, in µM): 132 ± 19; LC (minimal concentration that caused death) ([8]; i.a., viability monitored 24 hours): 360 ± 67 µM; Safety LC/MEC [8]: 2.7; LogPc (octanol-saline partition coefficient) ([9]; octanol/physiological saline, sodium salts): 1.33; Water mg/ml (solubility in aqueous solution) ([9]; physiological saline as aqueous solution, sodium salts): >25 mg/mL; Octanol mg/ml (solubility in octanol) ([9]; sodium salts of the branched fatty acids and their PO4 derivatives): >50 mg/mL
3 | CCCCCCCC(CCCCCCC)OP(=O)(O)O [7,7-PO4Na2, 8-Pentadecanyl Disodium Phosphate] | 320 µM |  |  |  |  |  |  |  |  |  | 
4 | CCCCCCCCCCCCC(CCC)C(=O)OCCOP(=O)([O-])[O-].[Na+].[Na+] (centres unmarked) [3,12-MEG-PO4Na2, 2-(2′-Propyltetradecanoyloxy)ethyl Disodium Phosphate] |  | > 200 µM | 60 µM | > 200 µM | 75 µM | 11 ± 2 µM | 18 ± 3 µM | 0.8 ± 0.1% | 5.0 ± 0.8 % of the F—Na level in the ser | 8.4 ± 0.9 | μg EB/g brain (at EC50) ([6]; Table 6, at EC50 (Mannitol at 25%)): 5 ± 1 μg EB/g brain
5 | 4-Octadecanyl phosphocholine [3,14-PC] |  |  |  |  | 4 µM |  |  |  |  |  | EC50 [10]: 7 µM; EC50 [11]: 160 µM; EC50 [12]: 72 µM
6 | CCCCCCCCCCCCCCCCCCC(CCC)C(=O)OCCOCCOP(=O)([O-])OCC[N+](C)(C)C (centres unmarked) [3,18-DEG-PC, 2-(2′-Propyleicosanoyloxy)ethoxyethylphosphocholine] |  |  |  |  |  |  |  |  |  |  | EC50 ([10]; Homo sapiens, HL-60, 72 h): 13 µM; EC50 ([5]; Homo sapiens, U-937, 72 h): 6 µM; EC50 ([11]; Mus musculus, Bone marrow cell, 120 h): 80 µM; EC50 ([12]; Homo sapiens, Primary bronchial epithelial cell, 72 h): 60 µM

Reference: patent US7186703B2, “Derivatives of branched-chain lipophilic molecules and uses thereof” (D-Pharm Ltd., priority 2000, dated 2007)
